Patent US5677296A, “Carbamic acid derivatives of substituted dibenzoxazepine compounds, pharmaceutical compositions and methods of use” (G.D. Searle & Co., priority 1995, dated 1997)

Assays:
[1] = system: prostaglandin E2-induced contractions of guinea pig ileum; test: Prostaglandin (PGE) Antagonism Assay (inhibition of prostaglandin E2-induced contractions of segments of guinea pig ileum); settings: for PGE2 antagonism in guinea pig ileum: Dose Ratio at 3 × 10^-6 M: test compound 3 × 10^-6 M, 30 min incubation, dose ratio of PGE2 EC50 values, average where more than one determined
Procedure: (b) Prostaglandin (PGE) Antagonism Assay
In order to determine the effectiveness of several of the compounds of the present invention ("test compounds") as prostaglandin E2 antagonists,a prostaglandin antagonism assay was conducted, as described below, to determine the ability of these compounds to inhibit prostaglandin E2 -induced contractions of segments of guinea pig ileum.
Male albino guinea pigs weighing 200 to 500 grams were sacrificed by cervical dislocation. The ilea were then quickly removed from the guinea pigs and placed in a modified Tyrode solution, a solution which is known to those skilled in the art, containing one-half of the usual amount of magnesium ions.
Segments of ileum about 2 cm long were then cut and mounted in a 10 mL tissue bath containing the modified Tyrode solution. The solution was maintained at 37° C. and aerated with a gaseous mixture of 95% oxygen and 5% carbon dioxide. Data for a control prostaglandin E2 dose response curve plotting concentration of prostaglandin E2 versus the intensity of contractions, detected isotonically, was then obtained by experimentally adjusting the dose of the prostaglandin E2 being injected into the tissue bath, in a manner known by those of skill in the art.
Solutions or suspensions containing an initial concentration (3 micromolar) of a test compound in modified Tyrode solution ("test solutions/suspensions") were then separately substituted for the control bath solution. Each test solution/suspension was then kept in constant contact with the ileum tissue, except for brief periods to drain the bath in preparation for rinsing with fresh test solution/suspension. A second prostaglandin E2 dose response curve was then generated for prostaglandin E2 in the presence of a test compound.
A control dose response curve is produced in isolated segments of guinea pig ileum mounted in an automated apparatus with six concentrations of prostaglandin E2. A solution or suspension of test compound is substituted for the control bathing solution and is incubated for thirty minutes. An additional prostaglandin E2 dose response curve is then performed in the presence of the test compound. A dose ratio is calculated from the EC50 values obtained from duplicate replications on each concentration of the test compound.
A dose ratio of EC50 doses was calculated from the results of each test in a manner known by those of skill in the art, and described above.
The dose ratios reported in Table 1 represent an average of multiple dose ratios for those compounds for which more than one dose ratio was determined. The compounds of the present invention which were tested in this assay, and for which results are presented in Table 1, correspond to the particular examples specified in Table 1.
The pA2 value (a statistical constant which is a common measure of expressing the potency of a particular drug as a competitive antagonist), rather than the dose ratio, was calculated for the test compound shown and described in Example 6 by schild plot calculations, as described by H. O. Schild, "pA, A New Scale for the Measurement of Drug Antagonism," Br. J. Pharmacol, 2, 189 (1947), and is reported in Table 1.

[2] = system: phenylbenzoquinone (PBQ)-induced writhing in mice; test: Writhing Assay (PBQ-induced writhing in mice, analgesic activity); format: in vivo, mouse (Charles River male albino mice); settings: 30 mpk, i.g., 30 min before PBQ i.p., fraction of mice
From the text: The Writhing Assay is one of the most widely-used experimental procedures for measuring the analgesic activity of different narcotic and nonnarcotic analgesic agents, and involves the continuous, chemically-induced pain of visceral origin to an animal, such as a mouse or rat. [Gyires et al., Arch. int. Pharmacodyn, 267, 131-140 (1984); C. Vander Wende et al., Fed. Proc., 15, 494 (1956); Koster et al., Fed. Proc., 18, 412 (1959); and Witken et al., J. Pharmacol. exp. Ther., 133, 400-408 (1961).] Chemicals which may be used to induce this pain include phenylbenzoquinone (PBQ) and acetic acid. As a result of the chemical irritation to the animal, a characteristic stretching and writhing of the animal (dorsiflexion of the animal's back, extension of its hindlimbs and the strong contraction of its abdominal musculature) will generally occur. […] Drugs which reduce the number of writhes of the animal appear to restore the normal nociceptive threshold of the animal.
Charles River male albino mice, weighing 20 to 30 grams, were used in this assay.
Thirty minutes after intragastric administration to ten mice of 30 mg per kilogram of body weight of a compound of the present invention ("test compound"), […] per 10 g of body weight of a 0.025% w/v solution of PBQ was injected intraperitoneally into each mouse. Ten mice which were given saline in place of a test compound of the invention were used as a control group.
Five minutes later, each mouse was individually placed into a glass beaker for observation, and the number of writhes occurring during the following ten-minute period was counted.
A test compound was considered to have produced analgesia in a mouse if, in accordance with the conditions set forth above, and under the test criteria employed for this assay, after the administration of 30 mg per kilogram of body weight of a compound of the present invention to the mouse, the number of writhes elicited by a mouse injected with PBQ was equal to, or less than, one-half the median number of writhes recorded for the saline-treated control group of mice that day, as described by Taber in "Predictive Value of Analgesic Assays in Mice and Rats," Advances in Biochemical Psychopharmacology, 8, 191 (1974).
The results for the particular compounds of the present invention analyzed in this assay, and discussed in the examples identified below which correspond thereto, are presented in Table 1 hereinbelow as fractions under the heading "WRITHING ASSAY." The fractions indicate the number of mice out of eight or ten in which a test compound produced analgesia.
The standard initial screening dose of a test compound employed in this assay was 30 mpk […]. Generally, if this initial screening dose of the test compound produced analgesia in seven out of ten mice, then the effect of additional doses of the test compound on the writhing response was evaluated, and then the ED50 dose was generally calculated. (The slopes of the dose-response curves for all test compounds analyzed were compared as described by Tallarida and Murray, Manual of Pharmacologic Calculations, Page 11 (Springer Verlag, New York, 1981)).
All ED50 doses calculated are also presented in Table 1 hereinbelow under the heading "WRITHING ASSAY," but as whole numbers.

Row | SMILES | PGE2 antagonism in guinea pig ileum: Dose Ratio at 3 × 10^-6 M [1] | also measured
1 | O=C1N2C=Cc3ccccc3C2C2c3ccccc3Oc3ccc(Cl)cc3N12 (single isomer, unassigned) [Compound 28, 12-Chloro-15H-benz[b]isoquino[2',1':3,4]imidazo-1,5-d][benzoxazepin-15-one] | 3.5 | –
2 | O=C1OC(c2ccncc2)c2c(Cl)ccc3c2N1Cc1ccccc1O3 (single isomer, unassigned; (+)) [Compound 5a, (+)-4-chloro-3-(4-pyridyl)-1H,3H,12H-[3,1]benzoxazino-[8,1-b,c][1,4]benzoxazepin-1-one] | 5.2 | Writhing assay: number of mice out of eight or ten in which test compound produced analgesia ([2]; 30 mg/kg): 8/10
3 | O=C1OC(c2ccco2)c2c(Cl)ccc3c2N1Cc1ccccc1O3 (stereo not drawn) [Compound 13, 4-chloro-3-(-2-furyl)-1H,3H,12H-[3,1]-benzoxazino-[8,1-b,c][1,4]benzoxazepin-1-one] | 4.4 | –
4 | Cn1c(-c2ccccc2)c2n(c1=O)-c1cc(Cl)ccc1Oc1ccccc1-2 [Compound 31] | 1.4 | –
5 | O=C1OC(c2ccccn2)C2c3ccccc3Oc3ccc(Cl)cc3N12 (stereo not drawn) [Compound 10, 6-chloro-1,13b-dihydro-1-(2-pyridyl)-3H-dibenz-[b,f]oxazolo[3,4-d][1,4]oxazepin-3-one] | 28.94 | Writhing assay: number of mice out of eight or ten in which test compound produced analgesia [2]: 1/10
6 | O=C1O[C@@H](c2ccncc2)[C@H]2c3ccccc3Oc3ccc(Cl)cc3N12 [Compound 6b, (-)-trans-6-chloro-1,13b-dihydro-1-(4-pyridyl)-3H-dibenz[b,f]oxazolo[3,4-d][1,4]oxazepin-3-one] | 2.7 | Writhing assay: number of mice out of eight or ten in which test compound produced analgesia ([2]; 30 mg/kg): 6/10
7 | O=C1OC(c2cccnc2)c2c(Cl)ccc3c2N1Cc1ccccc1O3 (stereo not drawn) [Compound 8, 4-chloro-3-(3-pyridyl)-1H,3H,12H-[3,1]-benzoxazino-[8,1-b,c][1,4]benzoxazepin-1-one] | – | Writhing assay: number of mice out of eight or ten in which test compound produced analgesia [2]: 5/10
8 | O=C1OC(c2ccsc2)C2c3ccccc3Oc3ccc(Cl)cc3N12 (stereo not drawn) [Compound 12, 6-chloro-1,13b-dihydro-1-(3-thienyl)-3H-dibenz[b,f]oxazolo[3,4-d][1,4]-oxazepin-3-one] | 1.9 | –
9 | O=C1OC(c2cccnc2)C2c3ccccc3Oc3ccc(Cl)cc3N12 (mixture of isomers) [Compounds 9a and 9b (Mixture), 6-chloro-1,13b-dihydro-1-(3-pyridyl)-3H-dibenz[b,f]-oxazolo[3,4-d][1,4]oxazepin-3-one] | 1.5 | –
10 | O=C1O[C@@H](c2ccncc2)[C@H]2c3ccccc3Oc3ccc(Cl)cc3N12 [Compound 6a, (+)-trans-6-chloro-1,13b-dihydro-1-(4-pyridyl)-3H-dibenz[b,f]oxazolo[3,4-d][1,4]oxazepin-3-one] | 23.4 | Writhing assay: number of mice out of eight or ten in which test compound produced analgesia ([2]; 30 mg/kg): 2/10
11 | O=C1O[C@@H](c2ccncc2)[C@@H]2c3ccccc3Oc3ccc(Cl)cc3N12 (relative stereo) [Compound 6, trans-6-chloro-1,13b-dihydro-1-(4-pyridyl)-3H-dibenz-[b,f]oxazolo[3,4-d][1,4]oxazepin-3-one] | – | Writhing assay: number of mice out of eight or ten in which test compound produced analgesia [2]: 5/10; PGE2 antagonism in guinea pig ileum: PA2 Value ([1]; Schild plot): 7.15
12 | COC(=O)c1ccc([C@@H]2OC(=O)N3c4cc(Cl)ccc4Oc4ccccc4[C@@H]23)cc1 (relative stereo) [Compound 17, 6-chloro-1,13b-dihydro-1-(4-carboxymethylphenyl)-3H-dibenz[b,f]-oxazolo[3,4-d][1,4]-oxazepin-3-one] | 2.3 | –
13 | O=C1N2CCc3ccccc3C2C2c3ccccc3Oc3ccc(Cl)cc3N12 (stereo not drawn) [Compound 29, 12-Chloro-17,18-dihydro-15H-benz[b]isoquino[2',1';3,4]-imidazo[1,5-d][1,4]benzoxazepin-15-one] | 3.8 | –
14 | O=C1OC2(CCC2)C2c3ccccc3Oc3ccc(Cl)cc3N12 (stereo not drawn) [Compound 21, 6-Chloro-1,13b-dihydro-3H-spiro[dibenz[b,f]oxazolo-[3,4-d][1,4]oxazepin-1,1'-cyclobutan]-3-one] | 0.9 | –
15 | O=C1C2c3ccccc3Oc3ccc(Cl)cc3N2C(=O)N1Cc1ccccc1 (stereo not drawn) [Compound 34, 6-Chloro-2-phenylmethyl-2H,13bH-dibenz[b,f]-imidazo-[1,5-d][1,4]oxazepin-1,3-dione] | 3.6 | –
16 | O=C(O)Cc1ccc(C2OC(=O)N3c4cc(Cl)ccc4Oc4ccccc4C23)cc1 (stereo not drawn) [Compound 16, 6-chloro-1,13b-dihydro-1-(-4-carboxymethlyphenyl)-3H-dibenz[b,f]-oxazolo-[3,4-d][1,4]oxazepin-3-one] | 2.4 | –
17 | O=c1[nH]c(-c2ccccc2)c2n1-c1cc(Cl)ccc1Oc1ccccc1-2 [Compound 30, 6-Chloro-1-phenyl-2H-dibenz[b,f]imidazo[1,5-d]-[1,4]oxazepin-3-one] | 2.1 | –
18 | O=C1C2c3ccccc3Oc3ccc(Cl)cc3N2C(=O)N1c1ccccc1 (stereo not drawn) [Compound 33, 6-Chloro-2-phenyl-2,13bH-dibenz[b,f]imidazo-[1,5-d][1,4]oxazepin-1,3-dione] | 4.3 | –
19 | O=C1OC2(CCCC2)C2c3ccccc3Oc3ccc(Cl)cc3N12 (stereo not drawn) [Compound 22, 6-chloro-1,13H-spiro[dibenz[b,f]-oxazolo3,4-d][1,4]oxazepin-1,1'-cyclopentane-3-one] | 2.5 | –
